One molecule from paper PMC11582173, “Synthesis, cytotoxicity, anti-inflammatory, anti-metastatic and anti-oxidant activities of novel chalcones incorporating 2-phenoxy-N-arylacetamide and thiophene moieties: induction of apoptosis in MCF7 and HEP2 cells” (Naunyn-Schmiedeberg's Archives of Pharmacology, 2024) can be followed below.

Assay [1] deals with Survivin gene. As to the kind of experiment: Real-time PCR, Survivin gene expression. The format is cell-based, human. Conditions: relative to untreated control (1). As to the method:
The expression level of the following six genes (Ki-67, Survivin, Interleukin-1 beta (IL-1B), Interleukin-6 (IL-6), Cyclooxygenase-2 (COX-2) and protein kinase B (AKT1)) was determined in MCF7 and HEP2 treated with the IC50 of compound 5c. The untreated cells were used as a negative control for comparison purposes. […] Ki-67 is a popular proliferation marker for human tumor cells. […] Survivin is an inhibitor of apoptotic protein (IAP) family member, which is essential for cell division. The lowering of the expression of survivin inhibited tumor development, triggered apoptosis, and made tumor cells more susceptible to radiation and chemotherapy (Albadari and Li [2023]). […] IL-1B is a pleiotropic mediator of inflammation, which is produced in response to a variety of stressors (Aarreberg et al. [2019]). […] IL-6 is a pro-inflammatory cytokine that plays a significant role in the proliferation and differentiation of human cells. It promotes the production of numerous proteins involved in acute inflammation (Uciechowski and Dempke [2020]). […]
The expression level of the following six genes (Ki-67, survivin, AKT1, IL-6, COX2, and IL-1B) was examined using real-time polymerase chain reaction (qPCR) (Mohamed et al. [2023a]). […] The cycle threshold (Ct) was determined automatically. […]

The test system of assay [2] is MCF7 cells. As to the kind of experiment: Wound healing scratch assay, MCF7. In kind it is cell-based, human. Conditions: MCF7, 5c at its IC50, 48 h; untreated C0 518.531±12.437, C48 h 160.647±61.276. As to the method:
To examine the effect of chalcone 5c on the migration properties of the MCF7 and HEP2 cells, the wound-healing scratch assay was used. […] Chalcone 5c at its IC50 reduced the ability to close the scrape wound and decreased the number of migrating MCF7 and HEP2 cells compared to the untreated cells (Fig. 4 and Table 6). The scratch gap percentage in 5c treated MCF7 was 344.684±41.224 relative to the control cells (160.647±61.276) after 48 h of treatment. The scratch gap in HEP2 treated with 5c was 567.281±112.789 compared to the untreated control HEP2 cells (211.604±79.883) after 48 h.
MCF7 and HEP2 treated and untreated cells were detached from the tissue culture plate using 0.25% Trypsin-EDTA solution. Cells pellet was prepared in a 15 mL conical tube by centrifugation. The supernatant was aspirated, and the cells were re-suspended in culture media. The appropriate number of cells was platted in a 6-well plate for 100% confluence in 24 hours. In a sterile environment (typically a biosafety hood), a 200 μL pipette tip was used to press firmly against the […] of the tissue culture plate and swiftly made a vertical wound down through the cell monolayer. Carefully, the media and cell debris were aspirated. Slowly, enough culture media was added against the good wall to cover the bottom of the well and avoid detaching additional cells. […]

For the molecule `COc1ccc(NC(=O)COc2ccc(C=CC(=O)c3cccs3)cc2)cc1` [Compound 5c, N-(4-Methoxyphenyl)-2-(4-(3-oxo-3-(thiophen-2-yl)prop-1-en-1-yl)phenoxy)acetamide], the values for the Survivin expression folding in assay [1] (HEP2 cells treated with IC50 of 5c) and in assay [1] (MCF7 cells treated with IC50 of 5c) were 0.489±0.07 fold and 0.632±0.0618 fold, respectively. Besides, the “% Scratch gap” value in assay [2] is listed as 344.684±41.224%.
